Experimental data taken from BigSolDB 2.1.

`C[C@H](O)[C@@H](O)[C@@H](O)[C@H](O)C=O` gave a solubility (mole fraction) (in acetone, 288.15 K) of 0.00023, a solubility (mole fraction) (in acetone, 293.15 K) of 0.00025 and a solubility (mole fraction) (in acetone, 298.15 K) of 0.00028. It also gave a solubility (mole fraction) (in acetone, 303.15 K) of 0.00032, a solubility (mole fraction) (in acetone, 308.15 K) of 0.00038 and a solubility (mole fraction) (in ethanol, 288.15 K) of 0.00032. For the same compound, the solubility (mole fraction) (in ethanol, 293.15 K) was 0.00038, the solubility (mole fraction) (in ethanol, 298.15 K) was 0.00043 and the solubility (mole fraction) (in ethanol, 303.15 K) was 0.00057. The solubility (mole fraction) (in ethanol, 308.15 K) was 0.00071, the solubility (mole fraction) (in isopropanol, 288.15 K) was 0.00014 and the solubility (mole fraction) (in isopropanol, 293.15 K) was 0.00024. It also gave a solubility (mole fraction) (in isopropanol, 298.15 K) of 0.00032, a solubility (mole fraction) (in isopropanol, 303.15 K) of 0.00043 and a solubility (mole fraction) (in isopropanol, 308.15 K) of 0.00056. It also gave a solubility (mole fraction) (in methanol, 288.15 K) of 0.00216, a solubility (mole fraction) (in methanol, 293.15 K) of 0.00244 and a solubility (mole fraction) (in methanol, 298.15 K) of 0.00275. The solubility (mole fraction) (in methanol, 303.15 K) was 0.00307, the solubility (mole fraction) (in methanol, 308.15 K) was 0.00345 and the solubility (mole fraction) (in water, 288.15 K) was 0.0512. It also gave a solubility (mole fraction) (in water, 298.15 K) of 0.0979, a solubility (mole fraction) (in water, 303.15 K) of 0.129 and a solubility (mole fraction) (in water, 308.15 K) of 0.174.
